The source of these data is patent US12324802B2, “Modulators of cystic fibrosis transmembrane conductance regulator” (Vertex Pharmaceuticals Incorporated, priority 2020, dated 2025).

In general, EC50 refers to the midpoint of the concentration-response curve.

T1 sequence (P13569 with tags, fused parts or gaps DEL508-508): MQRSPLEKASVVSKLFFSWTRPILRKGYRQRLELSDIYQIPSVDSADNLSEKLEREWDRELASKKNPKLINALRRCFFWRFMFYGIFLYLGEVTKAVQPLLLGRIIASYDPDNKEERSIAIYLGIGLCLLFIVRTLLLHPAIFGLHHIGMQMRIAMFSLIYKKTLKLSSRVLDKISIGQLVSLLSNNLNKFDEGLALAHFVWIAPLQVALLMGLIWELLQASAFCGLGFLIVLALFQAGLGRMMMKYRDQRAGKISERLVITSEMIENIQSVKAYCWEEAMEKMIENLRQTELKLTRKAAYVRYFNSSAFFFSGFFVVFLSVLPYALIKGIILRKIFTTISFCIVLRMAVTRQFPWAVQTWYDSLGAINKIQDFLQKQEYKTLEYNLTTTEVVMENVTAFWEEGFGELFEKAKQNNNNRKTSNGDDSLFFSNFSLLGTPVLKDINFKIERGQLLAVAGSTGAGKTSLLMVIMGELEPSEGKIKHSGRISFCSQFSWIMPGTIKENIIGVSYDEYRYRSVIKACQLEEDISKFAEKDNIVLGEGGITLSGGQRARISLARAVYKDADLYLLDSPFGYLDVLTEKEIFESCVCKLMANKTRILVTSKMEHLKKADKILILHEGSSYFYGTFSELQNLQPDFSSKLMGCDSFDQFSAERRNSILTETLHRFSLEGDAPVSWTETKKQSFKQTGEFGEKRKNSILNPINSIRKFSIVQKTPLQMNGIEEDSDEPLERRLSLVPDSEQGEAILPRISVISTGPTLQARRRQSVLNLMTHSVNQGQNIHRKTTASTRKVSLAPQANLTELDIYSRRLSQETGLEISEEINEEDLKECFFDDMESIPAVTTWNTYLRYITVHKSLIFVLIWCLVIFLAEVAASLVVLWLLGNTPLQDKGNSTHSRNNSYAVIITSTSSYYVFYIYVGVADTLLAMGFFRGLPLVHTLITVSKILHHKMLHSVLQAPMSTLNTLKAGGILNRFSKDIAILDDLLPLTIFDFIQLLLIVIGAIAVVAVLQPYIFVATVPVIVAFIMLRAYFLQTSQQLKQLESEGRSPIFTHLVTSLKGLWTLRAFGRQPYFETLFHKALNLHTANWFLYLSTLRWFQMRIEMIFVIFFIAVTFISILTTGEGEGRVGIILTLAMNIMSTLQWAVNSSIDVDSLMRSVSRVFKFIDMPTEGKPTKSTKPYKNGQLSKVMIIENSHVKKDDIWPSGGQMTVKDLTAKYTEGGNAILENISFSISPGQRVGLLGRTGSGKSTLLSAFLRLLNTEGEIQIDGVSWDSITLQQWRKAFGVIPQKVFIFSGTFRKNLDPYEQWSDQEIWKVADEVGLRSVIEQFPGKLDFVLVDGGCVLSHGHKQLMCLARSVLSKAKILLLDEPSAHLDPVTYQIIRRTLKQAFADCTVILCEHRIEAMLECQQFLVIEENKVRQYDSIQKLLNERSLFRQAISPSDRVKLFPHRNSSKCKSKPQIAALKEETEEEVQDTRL

This assay has as its target T1, CFTR (F508del/MF-HBE cells) (Homo sapiens, UniProt P13569, DEL508-508).
T1 construct: human bronchial epithelial (HBE) cells derived from CF subjects heterozygous for F508del and a minimal function CFTR mutation; endogenous in cells; host or cells: primary human bronchial epithelial cells from CF subjects (F508del/MF genotype)
In words: Ussing chamber assay of CFTR-mediated short-circuit currents (identification of potentiator compounds). To be noted: CFTR-mediated ISC in F508del/MF-HBE cells; incubated 18-24 hours at 37° C. with 10 μM (14S)-8-[3-(2-{dispiro[2.0.2.1]heptan-7-yl}ethoxy)-1H-pyrazol-1-yl]-...-2,2,4-trione, 20% human serum. It is filed as cell-based. In short, it runs like this:
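F508del/minimal-function HBE cultures grown at air-liquid interface were incubated for 18–24 h at 37 °C with potentiator plus 10 μM corrector, in 20% human serum, and compounds stayed present during recording. Transepithelial ISC was recorded at 0 mV and 37 °C with 30 μM apical amiloride. CFTR current was taken as the peak response to 20 μM forskolin minus the steady state after a 20 μM inhibitor cocktail.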
With `CC1(C)CCCCC[C@@](O)(C(F)(F)F)C2=NN=C(O2)c2nc(c(C(F)(F)F)cc2N)N1` [Compound 165, (6S)-17-Amino-12,12-dimethyl-6,15-bis(trifluoromethyl)-19-oxa-3,4,13,18-tetrazatricyclo[12.3.1.12,5]nonadeca-1(18),2,4,14,16-pentaen-6-ol], the EC50 was greater than 1000 nM.
With `CCOC(=O)CN1CCCCCCC(O)(C(F)(F)F)C2=NN=C(O2)c2nc1c(C(F)(F)F)cc2N` (single isomer, unassigned) [Compound 46, ethyl 2-[17-amino-6-hydroxy-6,15-bis(trifluoromethyl)-19-oxa-3,4,13,18-tetrazatricyclo[12.3.1.12,5]nonadeca-1(18),2,4,14,16-pentaen-13-yl]acetate] the figure was less than 500 nM.
Then `Nc1cc(C(F)(F)F)c2nc1-c1nnc(o1)C(O)(C(F)(F)F)CCCCC1CCN2C1` (stereo not drawn) [Compound 8, 16-amino-10,18-bis(trifluoromethyl)-20-oxa-2,12,13,19-tetraazatetracyclo[13.3.1.12,5.111,14]henicosa-1(19),11,13,15,17-pentaen-10-ol], with less than 500 nM.
With `CN(C)C(=O)C1CCCCCC(O)(C(F)(F)F)C2=NN=C(O2)c2nc(c(C(F)(F)F)cc2N)N1` (single isomer, unassigned) [Compound 148, 17-amino-6-hydroxy-N,N-dimethyl-6,15-bis(trifluoromethyl)-19-oxa-3,4,13,18-tetrazatricyclo[12.3.1.12,5]nonadeca-1(18),2,4,14,16-pentaene-12-carboxamide] the figure was less than 500 nM; with `Nc1cc(C(F)(F)F)c2nc1-c1nnc(o1)C(O)(C(F)(F)F)c1cc(ccn1)CCC[C@@H]1CCCN21` (single isomer, unassigned) [Compound 87], less than 500 nM; with `Nc1cc(C(F)(F)F)c2nc1-c1nnc(o1)[C@](O)(C(F)(F)F)CCCCC[C@H]1CCCN21` (single isomer, unassigned) [Compound 6], 500 to 1000 nM.
`CC1(C)CCC[C@@H](O)C[C@](O)(C(F)(F)F)C2=NN=C(O2)c2nc(c(C(F)(F)F)cc2N)N1` [Compound 187, (6R,8R)-17-amino-12,12-dimethyl-6,15-bis(trifluoromethyl)-19-oxa-3,4,13,18-tetrazatricyclo[12.3.1.12,5]nonadeca-1(18),2,4,14,16-pentaene-6,8-diol]: the concentration for a half-maximal effect (EC50) was less than 500 nM.
With `Nc1cc(C(F)(F)F)c2nc1-c1nnc(o1)[C@@](O)(C(F)(F)F)CCCCCC(C(=O)N1CCCC1)N2` (single isomer, unassigned) [Compound 157], the concentration giving a half-maximal response (EC50) is less than 500 nM.
Then `Nc1cc(C(F)(F)F)c2nc1-c1nnc(o1)C(O)(C(F)(F)F)CCCCC[C@@H]1COCCN21` (single isomer, unassigned) [Compound 54], with less than 500 nM; and `Nc1cc(C(F)(F)F)c2nc1-c1nnc(o1)C(O)(C(F)(F)F)CCCC(=O)N1CCN2CC1` (single isomer, unassigned) [Compound 38, 5-amino-11-hydroxy-3,11-bis(trifluoromethyl)-21-oxa-1,8,9,16,22-pentaazatetracyclo[14.2.2.12,6.17,10]docosa-2,4,6(22),7,9-pentaen-15-one], with greater than 1000 nM; and `CC1(C)COCCCC(O)(C(F)(F)F)C2=NN=C(O2)c2nc(c(C(F)(F)F)cc2N)N1` (single isomer, unassigned) [Compound 199, 17-amino-12,12-dimethyl-6,15-bis(trifluoromethyl)-10,19-dioxa-3,4,13,18-tetrazatricyclo[12.3.1.12,5]nonadeca-1(18),2,4,14,16-pentaen-6-ol], with less than 500 nM.
With `Nc1cc(C(F)(F)F)c2nc1-c1nnc(o1)C(O)(C(F)(F)F)CCCCCC(CO)N2` (single isomer, unassigned) [Compound 102, 17-amino-12-(hydroxymethyl)-6,15-bis(trifluoromethyl)-19-oxa-3,4,13,18-tetrazatricyclo[12.3.1.12,5]nonadeca-1(18),2,4,14,16-pentaen-6-ol] the figure was less than 500 nM.
